Measurements as given in patent US20090176839A1, “FORMULATIONS OF 3-(6-(1-(2,2-DIFLUOROBENZO[D][1,3]DIOXOL-5-YL) CYCLOPROPANECARBOXAMIDO)-3-METHYLPYRIDIN-2-YL)BENZOIC ACID” (priority 2007, published 2009).
Read-outs that look alike come from different tables or passages of the source.

Assays:
in vivo [1] = details: rat, po
Procedure: (§4) Repeat-dose oral toxicity studies of 7- and 14-days duration have been conducted in rats (up to 600 mg/kg/day) and dogs (up to 200 mg/kg/day).

[2] = Pharmacokinetics in cynomolgus monkeys; format: in vivo; details: monkey
Procedure: (§1) The pharmacokinetics of Compound 1 were assessed in the same species used in the toxicology studies: CD-1 mice, Sprague Dawley rats and beagle dogs. The pharmacokinetics of Compound 1 were also assessed in cynomolgus monkeys.

[3] = Acute oral toxicity study in rats; details: rat, in vivo, po
Procedure: (§2) The intended clinical route of administration is oral, thus oral toxicity studies were done in mice, rats and dogs. […] Effects of repeat oral dosing were assessed in rats and dogs in preliminary 7-day toxicity studies followed by a 14-day GLP1 toxicity studies.

rats = test: Acute oral toxicity study in rats; details: rats; single oral doses 500, 1000 or 2000 mg/kg
Procedure: as §2

[4] = Single oral pharmacokinetics of the free form in suspension in male rats; format: in vivo, male Sprague Dawley rats; details: for AUC(0-inf): free form suspension, mean (SD)
Procedure: as §1
Non-validated research grade assays were used for these analyses. All pharmacokinetic studies were conducted using fed animals unless otherwise specified.
At 600 mg/kg, the increase in systemic exposure was less than proportional to the increase in dose. Bioavailability ranged from 47% to ˜100% across the 1 to 600 mg/kg oral dose range in rats, indicating excellent absorption of the compound.

in vivo [5] = test: in vivo; design: species or system dogs; details: both sexes, dog
Procedure: (§3) One dog per gender was dosed orally with the vehicle (0.5% methylcellulose+0.5% Tween80 in water), or 25, 50, or 100 mg/kg/day Compound 1 for 7 consecutive days. The dose volume was 5 mL/kg/day for all dose groups. Plasma samples were collected on Days 1 and 7 for TK analysis and viability, clinical observations, body weights, feed consumption, clinical pathology (termination), organ weights, macroscopic observations, and microscopic pathology were evaluated.

dogs [6] = test: in vivo; details: dog
Procedure: as §3

mice = test: Acute oral toxicity study in mice; details: mice; single oral doses 500, 1000 or 2000 mg/kg
Procedure: as §2

[7] = Acute oral toxicity study in mice; details: mouse, in vivo, po
Procedure: as §2

TP receptor = target: T1, TP receptor (Rattus norvegicus, UniProt P34978); test: In vitro functional assay of TP receptor function using rat aorta; format: cell-based; details: read-out: IC50 (TP receptor antagonist)
T1 construct: In an in vitro functional assay of TP receptor function using rat aorta; from tissue; host or cells: rat aorta
T1 sequence (P34978 1-341): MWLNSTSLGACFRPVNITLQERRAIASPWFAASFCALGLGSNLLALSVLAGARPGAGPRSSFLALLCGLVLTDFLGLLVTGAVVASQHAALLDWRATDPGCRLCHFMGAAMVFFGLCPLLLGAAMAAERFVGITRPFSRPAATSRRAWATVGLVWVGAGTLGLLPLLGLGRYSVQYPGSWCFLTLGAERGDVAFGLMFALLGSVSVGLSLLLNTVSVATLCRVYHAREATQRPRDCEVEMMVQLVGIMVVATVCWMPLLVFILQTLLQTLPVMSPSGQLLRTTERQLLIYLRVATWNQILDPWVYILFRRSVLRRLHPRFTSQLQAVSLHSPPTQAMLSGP

[8] = tested on: gastrointestinal, respiratory, CNS, or cardiovascular systems; test: Safety pharmacology studies (ICH S7A/S7B battery); format: in vivo, rat, dog
hERG = hERG (Homo sapiens, UniProt Q12809); test: hERG electrophysiological techniques; format: cell-based; details: variety of electrophysiological techniques
[9] = Pharmacokinetics in CD-1 mice; format: in vivo; details: mouse
Procedure: as §1

[10] = Toxicokinetics in acute oral toxicity study in mice; format: in vivo; details: plasma
Source text: Compound 1 was well absorbed in mice with time to reach maximum plasma concentrations (tmax) ranging from 0.5 to 2.0 hr. […] There were no significant gender-related effects in Compound 1 exposures noted.

dogs [11] = details: dog, in vivo
Procedure: as §4

[12] = Sprague Dawley, rat, plasma, po, male rats, free form, 1 mg/kg
[13] = Sprague Dawley, rat, plasma, po, male rats, free form, 30 mg/kg
[14] = Sprague Dawley, rat, plasma, po, male rats, free form, 150 mg/kg
[15] = Sprague Dawley, rat, plasma, po, male rats, free form, 300 mg/kg
[16] = Sprague Dawley, rat, plasma, po, male rats, free form, 600 mg/kg
[17] = male rats, free form, 150 mg/kg
[18] = male rats, free form, 300 mg/kg
[19] = male rats, free form, 600 mg/kg

hERG, sequence (Q12809 whole entry): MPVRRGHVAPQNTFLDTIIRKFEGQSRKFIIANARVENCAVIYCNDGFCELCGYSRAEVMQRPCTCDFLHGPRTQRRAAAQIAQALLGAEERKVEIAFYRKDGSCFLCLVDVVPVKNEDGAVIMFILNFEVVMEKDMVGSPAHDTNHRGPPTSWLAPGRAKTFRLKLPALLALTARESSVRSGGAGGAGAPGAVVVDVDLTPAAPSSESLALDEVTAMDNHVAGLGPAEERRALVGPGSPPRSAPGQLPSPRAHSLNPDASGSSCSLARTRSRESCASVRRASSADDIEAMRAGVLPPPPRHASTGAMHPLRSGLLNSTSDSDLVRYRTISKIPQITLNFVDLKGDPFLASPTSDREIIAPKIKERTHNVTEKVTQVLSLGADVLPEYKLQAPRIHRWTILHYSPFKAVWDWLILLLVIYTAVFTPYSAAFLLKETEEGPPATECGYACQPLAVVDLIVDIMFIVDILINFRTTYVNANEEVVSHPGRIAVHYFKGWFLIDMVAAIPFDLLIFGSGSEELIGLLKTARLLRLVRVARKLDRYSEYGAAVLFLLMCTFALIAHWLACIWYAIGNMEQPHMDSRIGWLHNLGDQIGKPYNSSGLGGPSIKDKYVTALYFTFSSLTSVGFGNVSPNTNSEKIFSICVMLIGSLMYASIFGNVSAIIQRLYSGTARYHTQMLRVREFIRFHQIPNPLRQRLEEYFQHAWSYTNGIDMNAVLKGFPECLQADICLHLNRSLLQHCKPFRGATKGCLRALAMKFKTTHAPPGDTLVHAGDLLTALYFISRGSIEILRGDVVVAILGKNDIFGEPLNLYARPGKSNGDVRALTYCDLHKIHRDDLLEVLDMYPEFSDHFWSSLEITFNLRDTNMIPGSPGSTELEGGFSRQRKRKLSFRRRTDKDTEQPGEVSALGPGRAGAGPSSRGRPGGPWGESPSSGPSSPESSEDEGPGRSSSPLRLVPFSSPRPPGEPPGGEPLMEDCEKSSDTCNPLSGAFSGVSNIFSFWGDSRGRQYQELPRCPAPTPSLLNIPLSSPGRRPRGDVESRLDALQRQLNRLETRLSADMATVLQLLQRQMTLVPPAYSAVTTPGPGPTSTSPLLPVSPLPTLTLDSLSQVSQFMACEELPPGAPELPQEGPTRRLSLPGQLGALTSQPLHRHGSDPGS

Cc1ccc(NC(=O)C2(c3ccc4c(c3)OC(F)(F)O4)CC2)nc1-c1cccc(C(=O)O)c1 [Compound 1, 3-(6-(1-(2,2-difluorobenzo[d][1,3]dioxol-5-yl)cyclopropanecarboxamido)-3-methylpyridin-2-yl)benzoic acid]
NOAEL at 14 days (in vivo [1]): 600 mg/kg/day
clearance [2]: very low clearance
MTD at 14 days [3]: > 2000 mg/kg
NOAEL at 14 days [3]: > 2000 mg/kg
organ weights and gross observations at necropsy (rats): no effects on organ weights and no gross observations
concentration at 48 hr ([4]; Sprague Dawley, rat, plasma, oral, male rats, free form, 1 mg/kg, read-out: Clast): 28.8 ng/mL
concentration at 48 h ([4]; Sprague Dawley, rat, plasma, oral, male rats, free form, 30 mg/kg, read-out: Clast): 44 ng/mL
concentration at 72 hr ([4]; Sprague Dawley, rat, plasma, oral, male rats, free form, 150 mg/kg, read-out: Clast): 51.6 ng/mL
concentration at 48 hr ([4]; Sprague Dawley, rat, plasma, oral, male rats, free form, 300 mg/kg, read-out: Clast): 1120 ng/mL
concentration at 72 hr ([4]; Sprague Dawley, rat, plasma, oral, male rats, free form, 600 mg/kg, read-out: Clast): 1240 ng/mL
AUC(0-inf) ([4]; Sprague Dawley, rat, plasma, po, male rats, nominal dose 1 mg/kg): 13.7 µg·h/mL
AUC(0-inf) ([4]; Sprague Dawley, rat, plasma, po, male rats, nominal dose 30 mg/kg): 369 µg·h/mL
AUC(0-inf) ([4]; Sprague Dawley, rat, plasma, po, male rats, nominal dose 150 mg/kg): 728 µg·h/mL
AUC(0-inf) ([4]; Sprague Dawley, rat, plasma, po, male rats, nominal dose 300 mg/kg): 2530 µg·h/mL
AUC(0-inf) ([4]; Sprague Dawley, rat, plasma, po, male rats, nominal dose 600 mg/kg): 3080 µg·h/mL
Cmax [4, 12]: 1100 ng/mL
Tmax [4, 12]: 3 h
Cmax [4, 13]: 28200 ng/mL
Tmax [4, 13]: 4 h
Cmax [4, 14]: 54700 ng/mL
Tmax [4, 14]: 4.67 h
Cmax [4, 15]: 181000 ng/mL
Tmax [4, 15]: 3.33 h
Cmax [4, 16]: 203000 ng/mL
Tmax [4, 16]: 4.67 h
F ([4]; male rats, free form, 1 mg/kg): >100%
tlast ([4]; male rats, free form, 1 mg/kg): 48 h
F ([4]; male rats, free form, 30 mg/kg): >100%
tlast ([4]; male rats, free form, 30 mg/kg): 48 h
F [4, 17]: 47%
tlast [4, 17]: 72 h
F [4, 18]: 81%
tlast [4, 18]: 48 h
F [4, 19]: 50%
tlast [4, 19]: 72 h
half-life ([4]; male, Sprague Dawley, rat, plasma, po, 1 mg/kg, male rats, free form, 1 mg/kg, read-out: t1/2 (converted)): 7.65 h
half-life ([4]; male, Sprague Dawley, rat, plasma, po, 30 mg/kg, male rats, free form, 30 mg/kg, read-out: t1/2 (converted)): 6.83 h
half-life ([4]; male, Sprague Dawley, rat, plasma, po, 150 mg/kg, male rats, free form, 150 mg/kg, read-out: t1/2 (converted)): 8.07 h
half-life ([4]; male, Sprague Dawley, rat, plasma, po, 300 mg/kg, male rats, free form, 300 mg/kg, read-out: t1/2 (converted)): 5.86 h
half-life ([4]; male, Sprague Dawley, rat, plasma, po, 600 mg/kg, male rats, free form, 600 mg/kg, read-out: t1/2 (converted)): 7.49 h
half-life ([4]; male, Sprague Dawley, rat, plasma, po, administered orally to rats, read-out: half-life): 5 to 9 h
half-life ([4]; male, Sprague Dawley, rat, plasma, po, male rats, 1 to 600 mg/kg oral dose range, read-out: terminal half-life): 5.9 to 8.1 h
bioavailability ([4]; male, Sprague Dawley, rat, plasma, rats, across the 1 to 600 mg/kg oral dose range): 47 to 100%
Tmax ([4]; male, Sprague Dawley, rat, plasma, rats, across the oral dose range, fed conditions): 3 to 4.7 h
clearance ([4]; rat): very low clearance
NOAEL at 7 days (in vivo [5]): 100 mg/kg/day
food consumption, hematologies, coagulations parameters, ECG measurements (dogs [6]): no effects
gross lesions and histopathological findings (dogs [6]): no test article related gross lesions or histopathological findings
body weight loss (dogs [6]; 100 mg/kg/day): 0.3 kg
organ weights and gross observations at necropsy (mice): no effects on organ weights and no gross observations
MTD at 14 days [7]: > 2000 mg/kg
NOAEL at 14 days [7]: > 2000 mg/kg
IC50 (TP receptor): 1 to 10 µM
cardiovascular or respiratory findings ([8]; oral doses up to 1000 mg/kg in the rat and 200 mg/kg in the dog): no cardiovascular or respiratory findings
adverse effects on gastrointestinal, respiratory, CNS, or cardiovascular systems ([8]; oral formulations): unlikely to cause adverse effects
IC50 (hERG): ≥ 30 µM
clearance [9]: very low clearance
Cmax ([10]; CD-1, mouse, 2000 mg/kg, Female): 325000 ng/mL
AUC(0-t) ([10]; CD-1, mouse, 2000 mg/kg, Female, read-out: AUC0-24 h): 2900 µg·h/mL
Tmax ([10]; CD-1, mouse, 2000 mg/kg, Female, read-out: tmax): 1 h
Cmax ([10]; CD-1, mouse, 2000 mg/kg, Male): 264000 ng/mL
AUC(0-t) ([10]; CD-1, mouse, 2000 mg/kg, Male, read-out: AUC0-24 h): 2680 µg·h/mL
Tmax ([10]; CD-1, mouse, 2000 mg/kg, Male, read-out: tmax): 1 h
half-life ([10]; both sexes, mouse, 500 to 2000 mg/kg, read-out: elimination half-life (t1/2)): 4.1 to 8.6 h
Tmax ([10]; both sexes, mouse, 500 to 2000 mg/kg, read-out: time to reach maximum plasma concentrations (tmax)): 0.5 to 2 h
AUC(0-t) ([10]; female, mouse, females at 500 mg/kg, read-out: AUC0-24hr): 1840 µg·h/mL
Cmax ([10]; female, mouse, females at 2000 mg/kg): 325000 ng/mL
Cmax ([10]; male, mouse, males at 500 mg/kg): 142000 ng/mL
ECG tracings and opthalmology examinations (dogs [11]): within normal limits
RBC parameters, decreases (dogs [11]): 7-14%
total cholesterol, decreases (dogs [11]): 21-29%
triglycerides, decreases (dogs [11]): 44-46%
light microscopy findings (dogs [11]; 14 days): no significant Compound 1 related findings
dosage tolerated without toxic effect (dogs [11]; po, 14 days): up to 200 mg/kg/day
